According to ChEMBL document CHEMBL1909046, “DrugMatrix in vitro pharmacology data”:
Where a SMILES comes first, the peptide text is derived from it. Bridges are numbered along the chain shown (N, C = ends). [ ]: non-standard residue; d: D form. The star is where a group is joined. Threoninol(2S,3R) = C[C@@H](O)[C@H](CO)N*

Tests used:
[1] = DRUGMATRIX: Calcium Channel Type L, Phenylalkylamine radioligand binding (ligand: [3H] (-)-Desmethoxyverapamil (D-888)); type: cell membranes, Rattus norvegicus, Wistar, Brain, Membrane; conditions: Not Active = under 50% inhibition at 10 µM
Estrogen receptor beta = Estrogen receptor beta (Homo sapiens, UniProt Q92731); conditions: sf9; also: in other assays of this panel Not Active means under 50% inhibition at 10 µM
[2] = biological target: Receptor tyrosine-protein kinase erbB-2 (Homo sapiens, UniProt P04626); assay: biochemical; type: cell-based, Insect cells; conditions: insect cells;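 also: inhibition of HER2 kinase enzyme activity, measured with Poly(Glu:Tyr) as the phosphorylation substrate; in other assays of this panel Not Active means under 50% inhibition at 10 µM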
[3] = biological target: Mitogen-activated protein kinase 3 (Homo sapiens, UniProt P27361); assay: DRUGMATRIX: Protein Serine/Threonine Kinase, ERK1 enzyme inhibition (substrate: Myelin Basic Protein); parameters: species or system Escherichia coli; conditions: Not Active = under 50% inhibition at 10 µM
[4] = DRUGMATRIX: Phorbol Ester radioligand binding (ligand: [3H] PDBu); type: cell membranes, Mus musculus, ICR, Brain, Membrane; conditions: Not Active = under 50% inhibition at 10 µM
[5] = DRUGMATRIX: Imidazoline I2, Central radioligand binding (ligand: [3H] Idazoxan); type: cell membranes, Rattus norvegicus, Wistar, Cerebral cortex, Membrane; conditions: Not Active = under 50% inhibition at 10 µM
[6] = biological target: T1, C-X-C chemokine receptor type 1 (Homo sapiens, UniProt P25024); also: in other assays of this panel Not Active means under 50% inhibition at 10 µM
T1 sequence (P25024 whole entry): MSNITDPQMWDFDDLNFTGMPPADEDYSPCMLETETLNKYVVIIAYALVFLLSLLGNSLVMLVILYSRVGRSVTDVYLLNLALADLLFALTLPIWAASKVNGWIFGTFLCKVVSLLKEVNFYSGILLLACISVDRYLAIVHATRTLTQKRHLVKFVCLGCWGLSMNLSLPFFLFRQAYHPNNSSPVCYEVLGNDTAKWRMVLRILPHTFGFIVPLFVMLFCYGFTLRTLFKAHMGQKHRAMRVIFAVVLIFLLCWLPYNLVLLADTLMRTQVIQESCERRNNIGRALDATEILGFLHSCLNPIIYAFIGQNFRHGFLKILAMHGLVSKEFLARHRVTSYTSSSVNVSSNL

Melanocortin receptor 4 = Melanocortin receptor 4 (Homo sapiens, UniProt P32245); type: cell membranes, Membrane; conditions: hek293; also: in other assays of this panel Not Active means under 50% inhibition at 10 µM
Melanocortin receptor 4, sequence (P32245 whole entry): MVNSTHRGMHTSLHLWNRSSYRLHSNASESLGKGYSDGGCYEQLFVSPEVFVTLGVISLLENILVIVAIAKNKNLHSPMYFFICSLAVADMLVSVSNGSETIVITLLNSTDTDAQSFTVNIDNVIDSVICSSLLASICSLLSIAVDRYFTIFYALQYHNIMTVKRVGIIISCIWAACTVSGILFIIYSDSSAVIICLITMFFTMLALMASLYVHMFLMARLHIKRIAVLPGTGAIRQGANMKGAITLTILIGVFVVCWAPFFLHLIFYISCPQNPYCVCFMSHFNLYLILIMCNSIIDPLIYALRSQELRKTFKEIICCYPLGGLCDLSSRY

Mitogen-activated protein kinase 3, sequence (P27361 whole entry): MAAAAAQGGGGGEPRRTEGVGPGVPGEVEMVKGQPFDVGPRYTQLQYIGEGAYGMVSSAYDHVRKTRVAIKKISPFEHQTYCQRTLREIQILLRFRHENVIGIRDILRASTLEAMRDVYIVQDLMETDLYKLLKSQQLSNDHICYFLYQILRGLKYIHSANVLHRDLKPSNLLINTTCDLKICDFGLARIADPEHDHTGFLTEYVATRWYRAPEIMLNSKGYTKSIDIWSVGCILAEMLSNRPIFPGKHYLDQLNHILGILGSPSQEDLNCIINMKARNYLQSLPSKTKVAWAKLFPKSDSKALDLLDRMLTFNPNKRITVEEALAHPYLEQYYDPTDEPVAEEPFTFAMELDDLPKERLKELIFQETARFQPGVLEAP
Receptor tyrosine-protein kinase erbB-2, sequence (P04626 whole entry): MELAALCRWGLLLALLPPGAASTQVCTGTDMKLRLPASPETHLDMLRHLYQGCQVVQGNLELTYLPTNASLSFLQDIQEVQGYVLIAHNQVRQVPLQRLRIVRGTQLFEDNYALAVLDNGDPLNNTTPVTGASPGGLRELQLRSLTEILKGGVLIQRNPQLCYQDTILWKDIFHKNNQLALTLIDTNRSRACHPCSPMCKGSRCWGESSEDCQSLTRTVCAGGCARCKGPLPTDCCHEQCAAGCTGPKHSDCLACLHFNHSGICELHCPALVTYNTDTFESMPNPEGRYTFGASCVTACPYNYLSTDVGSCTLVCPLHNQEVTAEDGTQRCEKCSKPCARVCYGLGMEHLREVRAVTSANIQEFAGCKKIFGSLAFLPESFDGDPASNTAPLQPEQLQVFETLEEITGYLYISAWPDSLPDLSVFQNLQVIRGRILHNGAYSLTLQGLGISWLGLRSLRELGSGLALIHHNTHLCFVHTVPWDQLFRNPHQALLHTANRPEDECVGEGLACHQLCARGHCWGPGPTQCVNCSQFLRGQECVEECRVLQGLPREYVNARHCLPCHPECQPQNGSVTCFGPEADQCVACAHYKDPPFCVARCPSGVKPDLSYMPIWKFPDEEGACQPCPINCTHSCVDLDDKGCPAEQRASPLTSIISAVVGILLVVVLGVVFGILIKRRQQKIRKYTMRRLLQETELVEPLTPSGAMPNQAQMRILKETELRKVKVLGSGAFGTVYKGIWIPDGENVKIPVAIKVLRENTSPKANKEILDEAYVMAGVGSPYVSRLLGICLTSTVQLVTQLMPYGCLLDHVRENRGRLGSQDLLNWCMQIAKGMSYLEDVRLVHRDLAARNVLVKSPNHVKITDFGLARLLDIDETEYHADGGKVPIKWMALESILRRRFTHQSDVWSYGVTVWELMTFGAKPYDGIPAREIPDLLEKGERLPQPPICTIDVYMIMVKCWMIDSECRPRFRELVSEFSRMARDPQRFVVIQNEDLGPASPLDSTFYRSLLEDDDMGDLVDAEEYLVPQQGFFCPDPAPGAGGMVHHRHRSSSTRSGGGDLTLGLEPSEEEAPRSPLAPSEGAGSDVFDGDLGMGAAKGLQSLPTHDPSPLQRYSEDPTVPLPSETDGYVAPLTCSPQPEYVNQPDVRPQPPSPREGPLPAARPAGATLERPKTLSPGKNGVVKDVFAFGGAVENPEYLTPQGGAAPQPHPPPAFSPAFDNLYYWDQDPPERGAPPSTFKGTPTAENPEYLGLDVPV
Estrogen receptor beta, sequence (Q92731 whole entry): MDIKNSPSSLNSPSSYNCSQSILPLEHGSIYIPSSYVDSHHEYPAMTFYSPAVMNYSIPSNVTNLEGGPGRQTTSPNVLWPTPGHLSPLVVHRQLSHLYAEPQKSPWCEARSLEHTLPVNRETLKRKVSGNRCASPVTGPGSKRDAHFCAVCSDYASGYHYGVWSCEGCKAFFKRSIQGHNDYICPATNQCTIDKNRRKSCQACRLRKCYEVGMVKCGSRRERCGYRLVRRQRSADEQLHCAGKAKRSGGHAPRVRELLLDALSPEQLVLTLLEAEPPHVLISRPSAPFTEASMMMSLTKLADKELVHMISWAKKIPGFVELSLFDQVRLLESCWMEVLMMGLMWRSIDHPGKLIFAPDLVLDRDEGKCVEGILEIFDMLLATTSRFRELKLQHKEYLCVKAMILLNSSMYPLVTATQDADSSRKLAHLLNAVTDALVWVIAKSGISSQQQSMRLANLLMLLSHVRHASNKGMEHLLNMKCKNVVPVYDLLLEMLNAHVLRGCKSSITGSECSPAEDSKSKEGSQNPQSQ

Cc1ccccc1C(=O)N1CCC(Cc2ccccc2)CC1
Not Active: IC50 [1] | Ki [1] | IC50 (Estrogen receptor beta) | IC50 [2] | IC50 [3] | IC50 [4] | Ki [4] | IC50 [5] | Ki [5] | IC50 [6] | IC50 (Melanocortin receptor 4)

C[C@@H](O)[C@H](CO)NC(=O)[C@@H]1CSSC[C@H](NC(=O)[C@H](N)Cc2ccccc2)C(=O)N[C@@H](Cc2ccccc2)C(=O)N[C@H](Cc2c[nH]c3ccccc23)C(=O)N[C@@H](CCCCN)C(=O)N[C@@H]([C@@H](C)O)C(=O)N1 (H-[dF]CF[dW]KTC-{Threoninol(2S,3R)}; disulfide 2-7)
Not Active: IC50 [1] | Ki [1] | IC50 (Estrogen receptor beta) | IC50 [2] | IC50 [3] | IC50 [4] | Ki [4] | IC50 [5] | Ki [5] | IC50 [6] | IC50 (Melanocortin receptor 4)

S=C=Nc1cccc2ccccc12 [1-NAPHTHYLISOTHIOCYANATE]
Not Active: IC50 [1] | Ki [1] | IC50 (Estrogen receptor beta) | IC50 [2] | IC50 [3] | IC50 [4] | Ki [4] | IC50 [5] | Ki [5] | IC50 [6] | IC50 (Melanocortin receptor 4)

C[C@](O)(CS(=O)(=O)c1ccc(F)cc1)C(=O)Nc1ccc(C#N)c(C(F)(F)F)c1 [(R)-BICALUTAMIDE]
Not Active: IC50 [1] | Ki [1] | IC50 (Estrogen receptor beta) | IC50 [2] | IC50 [3] | IC50 [4] | Ki [4] | IC50 [5] | Ki [5] | IC50 [6] | IC50 (Melanocortin receptor 4)

CCCC(=O)Nc1ccc(OCC(O)CNC(C)C)c(C(C)=O)c1 (centres undefined) [ACEBUTOLOL]
Not Active: IC50 [1] | Ki [1] | IC50 (Estrogen receptor beta) | IC50 [2] | IC50 [3] | IC50 [4] | Ki [4] | IC50 [5] | Ki [5] | IC50 [6] | IC50 (Melanocortin receptor 4)

CC(=O)Nc1ccc(O)cc1 [ACETAMINOPHEN]
Not Active: IC50 [1] | Ki [1] | IC50 (Estrogen receptor beta) | IC50 [2] | IC50 [3] | IC50 [4] | Ki [4] | IC50 [5] | Ki [5] | IC50 [6] | IC50 (Melanocortin receptor 4)

COc1cc2c(c3oc(=O)c4c(c13)CCC4=O)[C@@H]1C=CO[C@@H]1O2 [AFLATOXIN]
Not Active: IC50 [1] | Ki [1] | IC50 (Estrogen receptor beta) | Ki (Estrogen receptor beta) | IC50 [2] | Ki [2] | IC50 [3] | Ki [3] | IC50 [4] | Ki [4] | IC50 [5] | Ki [5] | IC50 [6] | Ki [6] | IC50 (Melanocortin receptor 4) | Ki (Melanocortin receptor 4)

N=C(N)NC(=O)c1nc(Cl)c(N)nc1N [AMILORIDE]
Not Active: IC50 [1] | Ki [1] | IC50 (Estrogen receptor beta) | IC50 [2] | IC50 [3] | IC50 [4] | Ki [4] | IC50 [5] | Ki [5] | IC50 [6] | IC50 (Melanocortin receptor 4)

Cc1cc(=O)n(-c2ccccc2)n1C [ANTIPYRINE]
Not Active: IC50 [1] | Ki [1] | IC50 (Estrogen receptor beta) | IC50 [2] | IC50 [3] | IC50 [4] | Ki [4] | IC50 [5] | Ki [5] | IC50 [6] | IC50 (Melanocortin receptor 4)

CCOC(=O)[C@H](CCc1ccccc1)N[C@H]1CCc2ccccc2N(CC(=O)O)C1=O [BENAZEPRIL]
Not Active: IC50 [1] | Ki [1] | IC50 (Estrogen receptor beta) | IC50 [2] | IC50 [3] | IC50 [4] | Ki [4] | IC50 [5] | Ki [5] | IC50 [6] | IC50 (Melanocortin receptor 4)

Nc1c(CC(=O)O)cccc1C(=O)c1ccc(Br)cc1 [BROMFENAC]
Not Active: IC50 [1] | Ki [1] | IC50 (Estrogen receptor beta) | IC50 [2] | IC50 [3] | IC50 [4] | Ki [4] | IC50 [5] | Ki [5] | IC50 [6] | IC50 (Melanocortin receptor 4)

CCCCN1CCCCC1C(=O)Nc1c(C)cccc1C.Cl (centres undefined) [BUPIVACAINE HYDROCHLORIDE]
Not Active: IC50 [1] | Ki [1] | IC50 (Estrogen receptor beta) | IC50 [2] | IC50 [3] | IC50 [4] | Ki [4] | IC50 [5] | Ki [5] | IC50 [6] | IC50 (Melanocortin receptor 4)

O=NN(CCCl)C(=O)NCCCl [CARMUSTINE]
Not Active: IC50 [1] | Ki [1] | IC50 (Estrogen receptor beta) | IC50 [2] | IC50 [3] | IC50 [4] | Ki [4] | IC50 [5] | Ki [5] | IC50 [6] | IC50 (Melanocortin receptor 4)

CC1=C(C(=O)O)N2C(=O)[C@@H](NC(=O)[C@H](N)c3ccccc3)[C@H]2SC1 [CEPHALEXIN ANHYDROUS]
Not Active: IC50 [1] | Ki [1] | IC50 (Estrogen receptor beta) | IC50 [2] | IC50 [3] | IC50 [4] | Ki [4] | IC50 [5] | Ki [5] | IC50 [6] | IC50 (Melanocortin receptor 4)

O=C(N[C@H](CO)[C@H](O)c1ccc([N+](=O)[O-])cc1)C(Cl)Cl [CHLORAMPHENICOL]
Not Active: IC50 [1] | Ki [1] | IC50 (Estrogen receptor beta) | IC50 [2] | IC50 [3] | IC50 [4] | Ki [4] | IC50 [5] | Ki [5] | IC50 [6] | IC50 (Melanocortin receptor 4)

ClC(Cl)Cl [CHLOROFORM]
Not Active: IC50 [1] | Ki [1] | IC50 (Estrogen receptor beta) | IC50 [2] | IC50 [3] | IC50 [4] | Ki [4] | IC50 [5] | Ki [5] | IC50 [6] | IC50 (Melanocortin receptor 4)

C=C1CC[C@H](O)C/C1=C/C=C1\CCC[C@]2(C)[C@@H]([C@H](C)CCCC(C)C)CC[C@@H]12 [CHOLECALCIFEROL]
Not Active: IC50 [1] | Ki [1] | IC50 (Estrogen receptor beta) | IC50 [2] | IC50 [3] | IC50 [4] | Ki [4] | IC50 [5] | Ki [5] | IC50 [6] | IC50 (Melanocortin receptor 4)

CCOC(=O)C(C)(C)Oc1ccc(Cl)cc1 [CLOFIBRATE]
Not Active: IC50 [1] | Ki [1] | IC50 (Estrogen receptor beta) | IC50 [2] | IC50 [3] | IC50 [4] | Ki [4] | IC50 [5] | Ki [5] | IC50 [6] | IC50 (Melanocortin receptor 4)

CC(=O)OCC(=O)[C@@]1(O)CC[C@H]2[C@@H]3CCC4=CC(=O)CC[C@]4(C)[C@H]3C(=O)C[C@@]21C [CORTISONE ACETATE]
Not Active: IC50 [1] | Ki [1] | IC50 (Estrogen receptor beta) | IC50 [2] | IC50 [3] | IC50 [4] | Ki [4] | IC50 [5] | Ki [5] | IC50 [6] | IC50 (Melanocortin receptor 4)

O=c1ccc2ccccc2o1 [COUMARIN]
Not Active: IC50 [1] | Ki [1] | IC50 (Estrogen receptor beta) | IC50 [2] | IC50 [3] | IC50 [4] | Ki [4] | IC50 [5] | Ki [5] | IC50 [6] | IC50 (Melanocortin receptor 4)

C[C@@H]1C[C@@H]([C@H](O)CC2CC(=O)NC(=O)C2)C(=O)[C@@H](C)C1 [CYCLOHEXIMIDE]
Not Active: IC50 [1] | Ki [1] | IC50 (Estrogen receptor beta) | IC50 [2] | IC50 [3] | IC50 [4] | Ki [4] | IC50 [5] | Ki [5] | IC50 [6] | IC50 (Melanocortin receptor 4)

CN(C)/N=N/c1[nH]cnc1C(N)=O [DACARBAZINE]
Not Active: IC50 [1] | Ki [1] | IC50 (Estrogen receptor beta) | IC50 [2] | IC50 [3] | IC50 [4] | Ki [4] | IC50 [5] | Ki [5] | IC50 [6] | IC50 (Melanocortin receptor 4)

COc1ccc2c(c1)[C@]13CCCC[C@@H]1[C@H](C2)N(C)CC3 [DEXTROMETHORPHAN]
Not Active: IC50 [1] | Ki [1] | IC50 (Estrogen receptor beta) | IC50 [2] | IC50 [3] | IC50 [4] | Ki [4] | IC50 [5] | Ki [5] | IC50 [6] | IC50 (Melanocortin receptor 4)

COP(=O)(OC)OC=C(Cl)Cl [DICHLORVOS]
Not Active: IC50 [1] | Ki [1] | IC50 (Estrogen receptor beta) | IC50 [2] | IC50 [3] | IC50 [4] | Ki [4] | IC50 [5] | Ki [5] | IC50 [6] | IC50 (Melanocortin receptor 4)
